Experimental findings from US7189691B2, “Methods and compositions for treating leukemia” (The Administrators of the Tulane Educational Fund, priority 2004, dated 2007) are described below.

For one assay, the system named is MV4-11. In words: Annexin-V/PI binding assay (flow cytometry). The following applies: MV4-11, 50 μg/ml. The assay is classed as cell-based. As for the experimental part:
(§1) To test the possibility that growth inhibition of t(4;11) leukemia cells exposed to PFWT is the result of apoptotic cell death, annexin-V labeling of the cell membrane of the leukemic cells examined in Example 5 was used to assess apoptosis as follows (Koopman, G., et al., Blood 1994 84: 1415–1420.). Annexin V binding assays were carried out using a Vibrant™ apoptosis kit (Molecular Probes). […] For annexin V-propidium iodide (PI) staining, cells were harvested, washed once with PBS and resuspended in 100 μl annexin binding buffer. 5 μl annexin V conjugated to Alexa Fluor 488 and 2 μl of 100 μg/ml PI were added to the cell suspension and incubated at room temperature for 15 minutes. The cells were then washed once in annexin binding buffer and resuspended in 400 μl annexin binding buffer. These samples were then analyzed by flow cytometry using Coulter benchtop flow cytometer. The cells were excited by a 488 nm wavelength laser beam and the emission was measured using a 530 nm filter for annexin V and a 575 nm filter for PI.

The subject of another assay is MOLT-4. Put plainly: Annexin-V/PI binding assay (flow cytometry). The format is cell-based. The following applies: MOLT-4, 50 μg/ml. As for the experimental part:
as §1

A further assay concerns RS4;11. In words: Annexin-V/PI binding assay (flow cytometry). The assay is classed as cell-based. The note with it: RS4;11, 50 μg/ml. As for the experimental part: as §1
The target of assay [1] is T1, AF4-AF9 protein complexes (Homo sapiens, UniProt P42568).
T1 construct: expressed in transfected cells; host or cells: NIH-3T3
T1 sequence (P42568 1-568): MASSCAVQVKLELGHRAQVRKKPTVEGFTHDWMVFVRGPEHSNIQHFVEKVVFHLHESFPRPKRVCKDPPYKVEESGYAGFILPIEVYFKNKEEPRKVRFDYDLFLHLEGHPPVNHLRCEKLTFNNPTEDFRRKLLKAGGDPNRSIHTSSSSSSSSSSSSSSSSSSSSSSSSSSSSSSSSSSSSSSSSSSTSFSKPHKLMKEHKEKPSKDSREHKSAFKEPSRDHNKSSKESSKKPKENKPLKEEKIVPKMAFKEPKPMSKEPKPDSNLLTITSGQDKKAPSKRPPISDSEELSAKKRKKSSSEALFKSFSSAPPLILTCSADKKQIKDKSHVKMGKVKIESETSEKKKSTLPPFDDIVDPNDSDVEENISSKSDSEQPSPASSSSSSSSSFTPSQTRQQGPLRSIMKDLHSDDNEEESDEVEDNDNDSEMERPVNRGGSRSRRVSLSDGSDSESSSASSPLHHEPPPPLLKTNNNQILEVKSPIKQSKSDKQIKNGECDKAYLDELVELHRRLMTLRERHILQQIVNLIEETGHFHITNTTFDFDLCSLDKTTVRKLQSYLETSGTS
Put plainly: Co-localization of GFP-AF4R1 3A- and RFP-AF9 in transfected NIH-3T3 cells. The format is cell-based, mouse. The note with it: overnight. The method, then: To determine whether PFWT disrupts AF4-AF9 protein complexes in living cells, the properties of a fragment of mouse AF4 protein encompassing amino acids 623–811 (SEQ ID NO: 115) was used. The entire murine AF4 sequence can be obtained from the NCBI database at Accession Number AAD08668.
To test whether disruption of the AF4-AF9 interaction by PFWT results in delocalization of AF4R1 3A- from the nucleus to the cytoplasm even when co-expressed with exogenous AF9, the following assay was performed.
An enhanced green fluorescent protein (GFP) expression vector encoding mouse AF4 amino acids 623–811 SEQ ID NO: 115 (pEGFP-AF4R1 3A-), and a red fluorescent protein (RFP)-tagged AF9 expression vector were produced as described (Erfurth, F., et al., 2004, cited above; Srinivasan 2003, cited above; Hemenway, C. S., et al., 2001, cited above). NIH-3T3 cells were grown in chamber slides containing DMEM supplemented with 1-glutamine, 1% non-essential amino acids, 1% sodium pyruvate, 10% calf serum, and antibiotics. Cells were then transiently transfected with the expression vectors expressing fluorescent protein-tagged AF4 and AF9 using Lipofectamine™ 2000 reagent (Invitrogen). After 24 h the cells were treated with the peptides PFWT or PFmut at a concentration of 25 or 50 μg/ml and incubated overnight.
Cells on chamber slides were washed in PBS, fixed with 3% paraformaldehyde for 15 minutes, treated with 300 nM 4′,6-Diamidino-2-phenyindole (DAPI) nuclear counterstain for 5 minutes, and mounted with coverslips using Prolong™ media (Molecular Probes). Slides were visualized by deconvolution fluorescence microscopy with a Leica DMRXA upright microscope (Meyer Instruments) equipped with a Sensicam™ QE CCD digital camera (Cooke Corporation) and filter sets for both EGFP (exciter HQ480/20, dichroic Q495LP, and emitter HQ510/20m) and RFP (exciter 560/55x, dichroic Q595LP, and emitter HQ645/75m). Images were captured, deconvolved, and analyzed with Slidebook™ software (Intelligent Imaging Innovations).
Image analysis entailed a pixel correlation algorithm between the EGFP and RFP fluorescence channels within each image through creation of a digital binary overlay (thresholding) over arbitrary regions in both channels. This statistical measurement determines the degree in which two pixels in an image correspond to one another. If the trend in number of pixels in both EGFP and RFP channels overlap or co-localize entirely (i.e., perfect pixel set correlation), they have an assigned correlation measurement of 1.0.

A further assay has as its system B1 cells. Put plainly: Cell cycle analysis (PI DNA staining, flow cytometry). The assay is classed as cell-based. The note with it: for proportion of cells in G1 / proportion of cells in G2 / proportion of cells in S: G1:S:G2 ratio. As for the experimental part:
Leukemia cells were subjected to cell cycle analyses using a Cellular DNA flow cytrometric analysis kit (Roche) according to manufacturers' protocols to determine if PFWT might also induce cell cycle arrest. B1 cells were treated with peptides as outlined above and fixed. For DNA staining, cells were harvested and washed and resuspended with PBS at a concentration of 10^6 cells/ml. 1 unit/ml of RNase and 50 μg/mI of PI was added to this suspension and incubated at 37° C. for 1 hr and analyzed by flow cytometry using Coulter benchtop flow cytometer.

Structures are written as SMILES.

For the compound `CC[C@H](C)[C@H](NC(=O)[C@H](CCC(N)=O)NC(=O)[C@@H](N)CCCNC(=N)N)C(=O)N[C@@H](CCCCN)C(=O)N[C@@H](Cc1c[nH]c2ccccc12)C(=O)N[C@@H](Cc1ccccc1)C(=O)N[C@@H](CCC(N)=O)C(=O)N[C@@H](CC(N)=O)C(=O)N[C@@H](CCCNC(=N)N)C(=O)N[C@@H](CCCNC(=N)N)C(=O)N[C@@H](CCSC)C(=O)N[C@@H](CCCCN)C(=O)N[C@@H](Cc1c[nH]c2ccccc12)C(=O)N[C@@H](CCCCN)C(=O)N[C@@H](CCCCN)C(=O)N[C@@H](CC(C)C)C(=O)N[C@@H](Cc1c[nH]c2ccccc12)C(=O)N[C@@H](CCC(=O)O)C(=O)N[C@@H](CCCCN)C(=O)N[C@@H](CO)C(=O)N[C@@H](CC(=O)O)C(=O)N[C@@H](CC(C)C)C(=O)N[C@@H](CC(=O)O)C(=O)N[C@@H](CC(C)C)C(=O)N[C@@H](CC(C)C)C(=O)N[C@@H](CO)C(=O)N[C@@H](CCCNC(=N)N)C(=O)N[C@H](C(=O)N1CCC[C@H]1C(=O)O)C(C)C` [PFmut], in the assay with MV4-11, the “% Total apoptotic cells” value turned out to be 23.16% and the “% early apoptotic cells” value was determined as 8.26%. Further, in the assay with MOLT-4, the “% Total apoptotic cells” value is 6.64% and the “% early apoptotic cells” value is 1.36%. In the assay with RS4;11, the “% Total apoptotic cells” value stood at 7.22% and the “% early apoptotic cells” value was 1.36%. In assay [1] (25 μg/ml), the “localization of GFP-AF4R1 3A- relative to RFP-AF9” value is “no observable effect”; the “pixel correlation between EGFP and RFP channels” value is listed as “significantly positively correlated”. Besides, in assay [1] (50 μg/ml), the “localization of GFP-AF4R1 3A- relative to RFP-AF9” value is listed as “displaces some GFP-AF4R1 3A- from RFP-AF9 into the cytoplasm”; the “pixel correlation between EGFP and RFP channels” value was “strongly positively correlated”. In addition, in the assay with B1 cells, the “proportion of cells in G1” value was determined as 52, the “proportion of cells in G2” value is 8 and the “proportion of cells in S” value was 40.

Take `CC[C@H](C)[C@H](NC(=O)[C@H](CCCCN)NC(=O)[C@@H](NC(=O)[C@H](Cc1c[nH]c2ccccc12)NC(=O)[C@H](CC(C)C)NC(=O)[C@H](CCCCN)NC(=O)[C@H](CCCCN)NC(=O)[C@H](Cc1c[nH]c2ccccc12)NC(=O)[C@H](CCCCN)NC(=O)[C@H](CCSC)NC(=O)[C@H](CCCNC(=N)N)NC(=O)[C@H](CCCNC(=N)N)NC(=O)[C@H](CC(N)=O)NC(=O)[C@H](CCC(N)=O)NC(=O)[C@H](Cc1ccccc1)NC(=O)[C@H](Cc1c[nH]c2ccccc12)NC(=O)[C@H](CCCCN)NC(=O)[C@@H](NC(=O)[C@H](CCC(N)=O)NC(=O)[C@@H](N)CCCNC(=N)N)[C@@H](C)CC)C(C)C)C(=O)N[C@@H](CC(=O)O)C(=O)N[C@@H](CC(C)C)C(=O)N[C@@H](CC(=O)O)C(=O)N[C@@H](CC(C)C)C(=O)N[C@@H](CC(C)C)C(=O)N[C@@H](CO)C(=O)N[C@@H](CCCNC(=N)N)C(=O)N[C@H](C(=O)N1CCC[C@H]1C(=O)O)C(C)C` [PFWT]: in the assay on MV4-11, the “% Total apoptotic cells” value is reported as 45.3% and the “% early apoptotic cells” value came out at 28.42%. In the assay with MOLT-4, the “% Total apoptotic cells” value stood at 18.8% and the “% early apoptotic cells” value is recorded as 11.64%. In the assay on RS4;11, the “% Total apoptotic cells” value came to 34.64% and the “% early apoptotic cells” value was 26.18%. Besides, in assay [1] (25 μg/ml), the “localization of GFP-AF4R1 3A- relative to RFP-AF9” value is listed as “partially delocalizes or is displaced from RFP-AF9”; the “pixel correlation between EGFP and RFP channels” value was “negative correlation value”. For the same compound, in assay [1] (50 μg/ml), the “localization of GFP-AF4R1 3A- relative to RFP-AF9” value was “little or no GFP-AF4R1 3A- remains in the nucleus”; the “pixel correlation between EGFP and RFP channels” value is recorded as “negatively correlated”. Besides, in the assay with B1 cells, the “sub-G1 population (of all events)” value is on record as 51%, the “proportion of cells in G1” value stood at 47, the “proportion of cells in G2” value came out at 8 and the “proportion of cells in S” value came to 45.
